This is an account of results in ChEMBL document CHEMBL5303304, “EUbOPEN Chemogenomics Library - IncuCyte” (2023).

What all share (assay type): toxicity, cell-based
One data set concerns U2OS. The experiment in a line: Incucyte cell viability with U2OS. Conditions: human, 10 µM, compound concentration 10 uM.
The next data set relates to HEK-293T. The experiment in a line: Incucyte cell viability with HEK293T. The settings on record: human, 10 µM, compound concentration 10 uM.
The next data set deals with Fibroblast. Description: Incucyte cell viability with human fibroblast. Conditions: 10 µM, compound concentration 10 uM.
Further: unitless GR value; below 1 slowed growth and below 0 cell loss.

On to `Cn1c(=O)n(CCCO)c(=O)c2c1nc(Oc1cccc(OC(F)(F)F)c1)n2Cc1ccc(Cl)cc1` [ZERENCOTREP], for which the “Growth Rate” value with U2OS (0 h, replicate number 2) is on record as -0.21; in the data set with U2OS (12 h, replicate number 1) it was 0.8; in the data set with U2OS (18 h, replicate number 1), 0.88; in the data set on U2OS (24 h, replicate number 1) it was 0.94; in the data set with HEK-293T (0 h, replicate number 1) it was 0.5; in the data set on HEK-293T (0 h, replicate number 2), 0.33. In addition, the “Growth Rate” value in the data set on HEK-293T (6 h, replicate number 1) is on record as 0.54; with HEK-293T (6 h, replicate number 2), 0.64; with HEK-293T (12 h, replicate number 1), 0.92; in the data set on HEK-293T (18 h, replicate number 1) it was 0.98; in the data set with Fibroblast (6 h, replicate number 1) it was -0.36; in the data set with Fibroblast (6 h, replicate number 2), -0.98. The “Growth Rate” value in the data set on Fibroblast (12 h, replicate number 1) is on record as -1; with Fibroblast (12 h, replicate number 2), 0.88; in the data set with Fibroblast (18 h, replicate number 2), 0.6; with Fibroblast (24 h, replicate number 2), 0.54.

H-LVVYPWT-OH [SPINORPHIN]: the “Growth Rate” value with U2OS (0 h, replicate number 1) is on record as 0.44; in the data set with U2OS (0 h, replicate number 2), -1; in the data set with U2OS (6 h, replicate number 1), 0.61; with U2OS (6 h, replicate number 2) it was 0.08; in the data set on U2OS (12 h, replicate number 1) it was 0.76; with U2OS (12 h, replicate number 2) it was 0.43. Further, the “Growth Rate” value in the data set on U2OS (18 h, replicate number 1) is given as 0.82; in the data set with U2OS (18 h, replicate number 2) it was 0.66; in the data set with U2OS (24 h, replicate number 2), 0.92; in the data set with HEK-293T (0 h, replicate number 1), 0.9; in the data set with HEK-293T (0 h, replicate number 2), 0.94; in the data set with HEK-293T (6 h, replicate number 1), 0.99. Also, the “Growth Rate” value is -0.25 in the data set on Fibroblast (0 h, replicate number 1); -0.78 in the data set with Fibroblast (0 h, replicate number 2); -0.34 with Fibroblast (6 h, replicate number 1); -0.61 in the data set on Fibroblast (6 h, replicate number 2); -1 in the data set with Fibroblast (12 h, replicate number 1); 0.52 with Fibroblast (12 h, replicate number 2). Besides, the “Growth Rate” value in the data set with Fibroblast (18 h, replicate number 1) is recorded as 0.38; in the data set on Fibroblast (18 h, replicate number 2) it was 0.87; in the data set on Fibroblast (24 h, replicate number 1), 0.41; in the data set on Fibroblast (24 h, replicate number 2) it was 0.94.
